According to paper PMC4077706, “Lifting the Mask: Identification of New Small Molecule Inhibitors of Uropathogenic Escherichia coli Group 2 Capsule Biogenesis” (PLoS ONE, 2014):

Experiments:
Histamine H3 = target: T1, Histamine H3 (Homo sapiens, UniProt Q9Y5N1); assay: Radioligand binding 239820; settings: 10 µM
T1 construct: host or cells: CHO-K1 cells

GABAA, Muscimol, Central = format: binding, rat; settings: 10 µM
Adrenergic α2A = target: T2, Adrenergic α2A (Homo sapiens, UniProt P08913); assay: Radioligand binding 203620; settings: 10 µM
T2 construct: host or cells: insect Sf9 cells
Procedure: Vehicle: 1% DMSO Non-Specific Ligand: 10.0 µM Phentolamine
Incubation Buffer: 50 mM Tris-HCl, pH 7.4, 0. 5 mM Quantitation Method: Radioligand Binding
Bmax: 0.18 pmole/mg Protein *
Incubation Time/Temp: 60 minutes @ 25°C Specific Binding: 80% *
Bmax: 0.17 pmole/mg Protein *
Source: Human recombinant insect Sf9 cells Ligand: 1.0 nM [3H]
Vehicle: 1% DMSO Non-Specific Ligand: 10.0 µM WB-4101
Incubation Time/Temp: 60 minutes @ 25°C Specific Binding: 95% *
Incubation Buffer: 50 mM Tris-HCl, pH 7.4, 12.5 mM Quantitation Method: Radioligand Binding
Bmax: 4.60 pmole/mg Protein *
Source: Human recombinant CHO-K1 cells Ligand: 0.030 nM [125I] Cyanopindolol
Incubation Time/Temp: 2 hours @ 25°C Specific Binding: 95% *
Incubation Buffer: 50 mM Tris-HCl, pH 7.4, 1.4 mM Quantitation Method: Radioligand Binding
Ascorbic Acid, 0.001% BSA, 5 mM
EDTA, 1.5 mM CaCl2, 120 mM NaCl
Bmax: 0.072 pmole/mg Protein *

Endothelin ETB = target: T3, Endothelin ETB (Homo sapiens, UniProt P24530); format: binding; settings: 10 µM
T3 construct: host or cells: CHO-K1 cells

Neuropeptide Y Y1 = target: T4, Neuropeptide Y Y1 (Homo sapiens, UniProt P25929); assay: Radioligand binding 257010; settings: 10 µM
T4 construct: Human SK-N-MC cells; host or cells: SK-N-MC cells

Potassium Channel hERG = Potassium Channel hERG (Homo sapiens, UniProt Q12809); settings: 10 µM
[1] = system: GABAA, Flunitrazepam, Central; assay: Radioligand binding 226600; parameters: species or system rat; settings: 10 µM
[2] = system: E. coli EV36 (K1:K-12 hybrid strain); assay: T7 phage counter assay; format: cell-based, Escherichia coli; settings: average of at least 3 replicates ± SEM
Procedure: This secondary assay was performed as previously described and was used to distinguish compounds with phage inhibitory effects from true polysaccharide capsule inhibitors. […] Thus, the presence of a capsule inhibits T7-mediated lysis. In this assay, an increase in phage-induced lysis correlates to a decrease in capsule formation. […]. […] The positive control molecule C7 (100 µM final well concentration) was used in this screen.

Adenosine A1 = target: T5, Adenosine A1 (Homo sapiens, UniProt P30542); assay: Radioligand binding 200510; settings: 10 µM
T5 construct: host or cells: CHO cells

[3] = target: Calcium Channel L-Type, Dihydropyridine (Rattus norvegicus, UniProt P22002); format: binding; settings: 10 µM
[4] = target: T6, Transporter, Serotonin (5-Hydroxytryptamine) (SERT) (Homo sapiens, UniProt P31645); format: binding; settings: 10 µM
T6 construct: host or cells: HEK-293

Adenosine A3 = Adenosine A3 (Homo sapiens, UniProt P0DMS8); format: binding; settings: 10 µM
Adrenergic α1B = target: T7, Adrenergic α1B (Rattus norvegicus, UniProt P15823); format: binding; settings: 10 µM
T7 construct: Wistar Rat liver; tissue Eurofins Panlabs (assay Cat #) 203200; host or cells: Wistar rat liver

[5] = target: T8, Androgen (Testosterone) AR (Rattus norvegicus, UniProt P15207); format: binding; settings: 10 µM
T8 construct: Eurofins Panlabs (assay Cat #) 285010; host or cells: E. coli

Bradykinin B1 = target: T9, Bradykinin B1 (Homo sapiens, UniProt P46663); format: binding; settings: 10 µM
T9 construct: Human IMR-90 cells; host or cells: IMR-90 cells

E. coli UTI89 = assay: Human serum sensitization (MTT); format: cell-based, Escherichia coli; settings: 50 µM, pooled human serum, vs DMSO p = 0.0067
[6] = target: T10, Leukotriene, Cysteinyl CysLT1 (Homo sapiens, UniProt Q9Y271); assay: Radioligand binding 250460; settings: 10 µM
T10 construct: host or cells: CHO-K1 cells
T10 sequence (Q9Y271 whole entry): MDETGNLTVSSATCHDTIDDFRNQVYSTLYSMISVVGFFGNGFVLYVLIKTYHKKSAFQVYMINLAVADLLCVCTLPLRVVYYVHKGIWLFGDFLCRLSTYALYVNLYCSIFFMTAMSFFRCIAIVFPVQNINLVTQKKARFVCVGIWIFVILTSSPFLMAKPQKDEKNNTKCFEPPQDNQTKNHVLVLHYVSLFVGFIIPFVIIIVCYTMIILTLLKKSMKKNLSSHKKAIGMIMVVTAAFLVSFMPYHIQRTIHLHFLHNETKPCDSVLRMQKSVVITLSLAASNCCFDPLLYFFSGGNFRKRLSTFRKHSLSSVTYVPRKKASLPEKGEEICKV

T2 sequence (P08913 whole entry): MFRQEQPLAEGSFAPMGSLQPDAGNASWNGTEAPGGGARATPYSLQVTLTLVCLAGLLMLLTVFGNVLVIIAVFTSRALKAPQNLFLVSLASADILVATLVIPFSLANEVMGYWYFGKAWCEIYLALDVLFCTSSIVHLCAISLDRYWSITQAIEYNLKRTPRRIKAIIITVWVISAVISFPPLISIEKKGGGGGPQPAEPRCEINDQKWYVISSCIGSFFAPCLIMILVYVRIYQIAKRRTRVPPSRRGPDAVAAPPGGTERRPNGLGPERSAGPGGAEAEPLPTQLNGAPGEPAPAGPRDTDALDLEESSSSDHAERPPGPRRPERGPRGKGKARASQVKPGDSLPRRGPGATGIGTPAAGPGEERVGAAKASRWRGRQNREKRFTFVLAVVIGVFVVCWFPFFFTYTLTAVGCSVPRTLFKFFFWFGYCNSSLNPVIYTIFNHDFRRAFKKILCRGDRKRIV
T1 sequence (Q9Y5N1 whole entry): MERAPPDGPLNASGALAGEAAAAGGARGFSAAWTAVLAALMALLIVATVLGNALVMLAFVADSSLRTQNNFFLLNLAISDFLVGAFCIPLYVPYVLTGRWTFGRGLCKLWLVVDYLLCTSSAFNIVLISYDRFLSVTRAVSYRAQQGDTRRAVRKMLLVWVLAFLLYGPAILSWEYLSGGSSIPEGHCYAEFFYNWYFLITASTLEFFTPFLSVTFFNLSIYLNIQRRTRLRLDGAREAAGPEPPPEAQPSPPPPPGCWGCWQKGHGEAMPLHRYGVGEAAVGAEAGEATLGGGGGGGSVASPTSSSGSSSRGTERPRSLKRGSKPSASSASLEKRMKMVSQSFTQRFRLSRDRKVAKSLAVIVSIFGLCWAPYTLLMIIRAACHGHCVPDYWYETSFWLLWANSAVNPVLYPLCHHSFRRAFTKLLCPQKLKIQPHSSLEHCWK
T5 sequence (P30542 whole entry): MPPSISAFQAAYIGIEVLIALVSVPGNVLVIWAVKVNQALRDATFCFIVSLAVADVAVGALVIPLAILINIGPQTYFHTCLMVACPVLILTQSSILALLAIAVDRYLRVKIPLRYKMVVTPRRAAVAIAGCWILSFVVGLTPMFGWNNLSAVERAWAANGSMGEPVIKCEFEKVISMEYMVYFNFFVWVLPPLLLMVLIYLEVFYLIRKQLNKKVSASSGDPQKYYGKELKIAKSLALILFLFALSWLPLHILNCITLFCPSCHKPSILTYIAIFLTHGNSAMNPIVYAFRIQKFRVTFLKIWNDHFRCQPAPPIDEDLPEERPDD
T4 sequence (P25929 whole entry): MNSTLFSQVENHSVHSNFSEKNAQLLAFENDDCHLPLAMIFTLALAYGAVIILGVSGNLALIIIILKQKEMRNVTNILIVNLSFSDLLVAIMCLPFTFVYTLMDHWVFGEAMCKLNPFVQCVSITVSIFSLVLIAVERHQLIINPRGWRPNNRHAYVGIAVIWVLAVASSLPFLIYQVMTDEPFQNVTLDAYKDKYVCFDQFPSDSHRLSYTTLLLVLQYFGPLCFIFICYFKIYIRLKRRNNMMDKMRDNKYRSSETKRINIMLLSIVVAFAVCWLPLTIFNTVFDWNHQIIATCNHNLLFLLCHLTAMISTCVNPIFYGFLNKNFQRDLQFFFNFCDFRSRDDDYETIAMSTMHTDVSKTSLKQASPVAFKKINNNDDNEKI
T3 sequence (P24530 27-442): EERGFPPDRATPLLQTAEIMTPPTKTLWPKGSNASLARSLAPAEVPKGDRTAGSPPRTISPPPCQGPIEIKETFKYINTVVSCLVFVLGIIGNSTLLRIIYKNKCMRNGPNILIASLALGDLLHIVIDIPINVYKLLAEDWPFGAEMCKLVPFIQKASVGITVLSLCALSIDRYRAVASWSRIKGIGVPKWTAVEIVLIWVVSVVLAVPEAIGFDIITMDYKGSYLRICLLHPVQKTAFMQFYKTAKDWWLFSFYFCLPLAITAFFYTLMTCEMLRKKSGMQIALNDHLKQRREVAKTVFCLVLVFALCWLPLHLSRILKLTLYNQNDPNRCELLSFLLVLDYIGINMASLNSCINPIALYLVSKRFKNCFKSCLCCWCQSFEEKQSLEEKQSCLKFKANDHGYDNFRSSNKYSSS
Adenosine A3, sequence (P0DMS8 whole entry): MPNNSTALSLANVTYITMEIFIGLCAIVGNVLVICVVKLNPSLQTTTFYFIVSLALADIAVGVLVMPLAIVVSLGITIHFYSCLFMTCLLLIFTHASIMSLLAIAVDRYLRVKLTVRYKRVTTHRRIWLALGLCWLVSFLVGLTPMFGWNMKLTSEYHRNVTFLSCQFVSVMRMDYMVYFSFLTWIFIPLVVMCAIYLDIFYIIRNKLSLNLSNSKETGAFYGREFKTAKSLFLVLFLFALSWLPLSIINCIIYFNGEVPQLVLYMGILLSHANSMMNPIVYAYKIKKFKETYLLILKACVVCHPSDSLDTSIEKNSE
Potassium Channel hERG, sequence (Q12809 whole entry): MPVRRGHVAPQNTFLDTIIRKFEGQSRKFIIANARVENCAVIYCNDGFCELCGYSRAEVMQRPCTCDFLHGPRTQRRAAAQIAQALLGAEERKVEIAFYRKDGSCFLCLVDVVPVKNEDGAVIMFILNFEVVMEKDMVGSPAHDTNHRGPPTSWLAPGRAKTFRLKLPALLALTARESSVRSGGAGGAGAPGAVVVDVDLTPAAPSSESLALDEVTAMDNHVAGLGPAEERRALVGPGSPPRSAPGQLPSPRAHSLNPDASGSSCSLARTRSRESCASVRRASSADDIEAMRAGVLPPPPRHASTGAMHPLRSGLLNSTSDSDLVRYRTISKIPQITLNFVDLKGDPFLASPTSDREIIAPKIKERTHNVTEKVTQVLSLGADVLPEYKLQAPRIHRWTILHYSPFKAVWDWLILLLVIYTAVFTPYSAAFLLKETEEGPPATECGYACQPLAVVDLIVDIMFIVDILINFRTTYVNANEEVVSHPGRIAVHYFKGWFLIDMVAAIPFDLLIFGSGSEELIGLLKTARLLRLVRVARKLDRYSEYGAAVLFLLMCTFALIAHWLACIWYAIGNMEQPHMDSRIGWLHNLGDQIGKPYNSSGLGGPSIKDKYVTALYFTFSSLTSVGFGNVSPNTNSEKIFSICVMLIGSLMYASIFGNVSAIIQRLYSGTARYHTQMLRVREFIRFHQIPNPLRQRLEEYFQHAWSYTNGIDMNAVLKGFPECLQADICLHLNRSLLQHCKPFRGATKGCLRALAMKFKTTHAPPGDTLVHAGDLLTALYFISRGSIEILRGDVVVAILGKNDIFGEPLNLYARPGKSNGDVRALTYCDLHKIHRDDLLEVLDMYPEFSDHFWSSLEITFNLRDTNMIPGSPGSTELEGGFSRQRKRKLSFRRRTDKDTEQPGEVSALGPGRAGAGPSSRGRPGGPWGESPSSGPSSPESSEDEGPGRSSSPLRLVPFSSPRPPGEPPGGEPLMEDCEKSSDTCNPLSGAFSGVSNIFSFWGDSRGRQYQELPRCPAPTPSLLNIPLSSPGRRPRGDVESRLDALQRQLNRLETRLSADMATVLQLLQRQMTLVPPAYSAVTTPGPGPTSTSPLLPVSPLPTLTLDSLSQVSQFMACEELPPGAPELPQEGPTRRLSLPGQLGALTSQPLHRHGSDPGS
T9 sequence (P46663 whole entry): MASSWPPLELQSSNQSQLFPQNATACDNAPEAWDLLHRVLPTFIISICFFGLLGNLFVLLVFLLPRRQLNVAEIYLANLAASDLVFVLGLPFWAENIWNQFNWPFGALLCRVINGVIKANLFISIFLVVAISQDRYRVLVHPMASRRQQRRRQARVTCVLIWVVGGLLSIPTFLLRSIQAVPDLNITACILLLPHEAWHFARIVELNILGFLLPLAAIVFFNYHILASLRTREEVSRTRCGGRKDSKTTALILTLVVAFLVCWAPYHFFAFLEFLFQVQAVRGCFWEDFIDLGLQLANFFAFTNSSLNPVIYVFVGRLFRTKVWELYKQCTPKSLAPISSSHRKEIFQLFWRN
T6 sequence (P31645 whole entry): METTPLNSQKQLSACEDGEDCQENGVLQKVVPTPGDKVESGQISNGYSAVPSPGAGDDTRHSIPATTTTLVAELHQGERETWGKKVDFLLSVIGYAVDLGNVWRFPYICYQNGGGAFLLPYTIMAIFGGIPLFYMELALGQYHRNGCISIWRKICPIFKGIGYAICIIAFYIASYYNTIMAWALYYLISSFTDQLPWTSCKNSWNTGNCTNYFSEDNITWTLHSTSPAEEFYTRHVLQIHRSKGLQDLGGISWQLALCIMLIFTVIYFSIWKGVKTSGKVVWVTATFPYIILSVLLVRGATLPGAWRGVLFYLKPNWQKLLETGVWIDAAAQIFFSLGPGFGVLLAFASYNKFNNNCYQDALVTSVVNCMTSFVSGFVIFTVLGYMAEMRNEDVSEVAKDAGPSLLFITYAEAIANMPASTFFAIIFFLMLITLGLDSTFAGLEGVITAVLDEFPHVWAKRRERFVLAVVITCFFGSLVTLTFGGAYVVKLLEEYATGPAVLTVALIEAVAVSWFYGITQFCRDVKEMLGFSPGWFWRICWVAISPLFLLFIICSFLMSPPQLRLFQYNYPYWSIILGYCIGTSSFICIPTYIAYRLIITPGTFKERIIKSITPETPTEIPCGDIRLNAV

With `CCOc1ccc(-c2cc(NC(=O)c3c(F)cccc3F)c(C(=O)O)s2)cc1` [DU011] the “% Inh.” value (Histamine H3) was 13%, the “% Inh.” value (GABAA, Muscimol, Central) was 4% and the “% Inh.” value (Adrenergic α2A) was -14%. The “% Inh.” value (Endothelin ETB) was 3%, the “% Inh.” value (Neuropeptide Y Y1) was 2% and the “% Inh.” value (Potassium Channel hERG) was 9%. The “% Inh.” value [1] was 12%, the IC50 [2] was 690 ± 780 nM and the “% Inh.” value (Adenosine A1) was -17%. The “% Inh.” value [3] was 18%, the “% Inh.” value [4] was 5% and the “% Inh.” value (Adenosine A3) was -5%. The “% Inh.” value (Adrenergic α1B) was 14%, the “% Inh.” value [5] was 5% and the “% Inh.” value (Bradykinin B1) was 12%. The “serum-mediated killing of UPEC (MTT)” value (E. coli UTI89) was “further increased serum-mediated killing” and the “% Inh.” value [6] was 19%.
